Holding throughout (type): cell-based
For data set [1], the system named is Bacillus subtilis. The experiment in a line: microbe, parasite or virus in culture. The following applies: read-out: MIC against Bacillus subtilis. As for the experimental part: Bacillus subtilis, Candida albicans and Stachybotrys chartarum (ATCC) were grown in tryptic soy broth at 37° C., yeast mold broth at 24° C. and tryptic soy broth at 26° C., respectively. The MICs of the peptides or peptide nanoparticles were measured using a broth microdilution method. Briefly, 50 μL of peptide and peptide nanoparticle solutions with a concentration of 7.1 to 142 μM was placed into each well of 96-well plates. 50 μL of microorganism solution was added to each well to give an optical density reading of 0.1 to 0.2 at 600 nm. […] Broth containing cells alone was used as control. The tests were repeated three times.

The test system of data set [2] is Candida albicans. The following applies: broth microdilution, no growth observed. On the procedure: (§1) Bacillus subtilis, Candida albicans and Stachybotrys chartarum (ATCC) were grown in tryptic soy broth at 37° C., yeast mold broth at 24° C. and tryptic soy broth at 26° C., respectively. The MICs of the peptides or peptide nanoparticles were measured using a broth microdilution method. Briefly, 50 μL of peptide and peptide nanoparticle solutions with a concentration of 7.1 to 142 μM was placed into each well of 96-well plates. 50 μL of microorganism solution was added to each well to give an optical density reading of 0.1 to 0.2 at 600 nm. The cell cultures were then incubated for 15, 12/16 and 170 hours for Bacillus subtilis, Candida albicans and Stachybotrys chartarum respectively, and the MIC was taken at the concentration at which no growth was observed. Broth containing cells alone was used as control. The tests were repeated three times.

Data set [3] deals with Stachybotrys chartarum. Put plainly: microbe, parasite or virus in culture. The note with it: broth microdilution, no growth observed, read-out: MIC against Stachybotrys chartarum. As for the experimental part:
as §1

In data set [4] the test system is rat red blood cells. Put plainly: Hemolysis assay. The note with it: at concentrations lower than its MIC. On the procedure: Fresh rat red blood cells were washed with PBS for three times. 100 μL of red blood cells suspended in PBS (4% in volume) was placed in each well of 96-well plates and 100 μL of peptide nanoparticle or amphotericin B solution was added to each well. The plates were incubated for one hour at 37° C. The cell suspensions were taken out and centrifuged at 1000 g for 5 minutes. Aliquots (100 μL) of supernatant were transferred to 96-well plates, and hemoglobin release was monitored at 576 nm using a microplate reader (Bio-Teck Instruments, Inc). Percentage of hemolysis was calculated using the following formula: Hemolysis (%)=[(O.D.576 nm in the nanoparticle solution−O.D.576 nm in PBS)/(O.D.576 nm in 0.1% Triton X-100−O.D.576 nm in PBS)]×100. In vivo studies.

The mark [5] stands for this setting: broth microdilution, no growth observed.

≈ marks a conversion by molar mass, not a printed value. Read-outs that look alike come from different tables or passages of the source. No end group written: not given here. Some results are limits rather than exact numbers.

For the molecule `N=C(N)NCCC[C@H](NC(=O)[C@H](CCCNC(=N)N)NC(=O)[C@H](CCCNC(=N)N)NC(=O)[C@H](CCCNC(=N)N)NC(=O)[C@H](CCCNC(=N)N)NC(=O)[C@H](CCCNC(=N)N)NC(=O)[C@H](CCCNC(=N)N)NC(=O)[C@H](CCCNC(=N)N)NC(=O)[C@H](CCCNC(=N)N)NC(=O)[C@H](CCCNC(=N)N)NC(=O)[C@H](CCCNC(=N)N)NC(=O)[C@H](CCCNC(=N)N)NC(=O)CNC(=O)CNC(=O)CN)C(N)=O` [G3R12], the MIC in data set [1] (setting [5]) turned out to be 242.0 µM (≈ 499 µg/mL). Moreover, the “MIC against Candida albicans” value in data set [2] came out at 242.0 µM (≈ 499 µg/mL).

In the case of `N=C(N)NCCC[C@H](NC(=O)[C@H](CCCNC(=N)N)NC(=O)[C@H](CCCNC(=N)N)NC(=O)[C@H](CCC(N)=O)NC(=O)[C@H](CCCNC(=N)N)NC(=O)[C@H](CCCNC(=N)N)NC(=O)[C@H](CCCCN)NC(=O)[C@H](CCCCN)NC(=O)[C@H](CCCNC(=N)N)NC(=O)CNC(=O)[C@H](Cc1ccc(O)cc1)NC(=O)CNC(=O)CNC(=O)CN)C(N)=O` [G3TAT], in data set [1] (setting [5]), the MIC is reported as 290.0 µM (≈ 502 µg/mL). The “MIC against Candida albicans” value in data set [2] came to 289.0 µM (≈ 500 µg/mL).

In the case of `C[C@@H]1[C@H](O)[C@@H](C)/C=C/C=C/C=C/C=C/C=C/C=C/C=C/[C@H](O[C@@H]2O[C@H](C)[C@@H](O)[C@H](N)[C@@H]2O)C[C@@H]2O[C@](O)(C[C@@H](O)C[C@@H](O)[C@H](O)CC[C@@H](O)C[C@@H](O)CC(=O)O[C@H]1C)C[C@H](O)[C@H]2C(=O)O` [amphotericin B], the MIC in data set [3] was over 54.0 µM. The hemolysis result in data set [4] is given as “more than 90%”.

Consider `C[C@H]1c2cccc(O)c2C(=O)C2=C(O)[C@]3(O)C(=O)C(C(N)=O)=C(O)[C@@H](N(C)C)[C@@H]3[C@@H](O)[C@@H]21` [doxycycline], for which the MIC in data set [1] (Bacillus subtilis, FIG. 12, 16 hours of incubation) worked out at 13.5 µM (≈ 6 µg/mL).

For `OC(Cn1cncn1)(Cn1cncn1)c1ccc(F)cc1F` [fluconazole], the MIC in data set [3] (Stachybotrys chartarum) is over 817 µM.

As for `CC1(C)S[C@@H]2[C@H](NC(=O)Cc3ccccc3)C(=O)N2[C@H]1C(=O)O` [penicillin G], in data set [1] (FIG. 12, 16 hours of incubation), the MIC amounted to 1074 µM (≈ 359 µg/mL).

Regarding “GGGRRRRRR-NH2 (C-terminus assumed) [G3R6]”, the MIC in data set [1] (setting [5]) is given as over 444.4 µM. Besides, in data set [2], the “MIC against Candida albicans” value is over 444.4 µM.

GGGRRRRRRYGRKKRRQRRR-NH2 [G3R6TAT]: the MIC in data set [1] (setting [5]) amounted to 75.0 µM. The “MIC against Candida albicans” value in data set [2] came out at 75.0 µM.

The values are drawn from patent US20110223202A1, “CATIONIC CORE-SHELL PEPTIDE NONOPARTICLES” (priority 2007, published 2011).
